Assay results reported in patent publication US4563479A, “Synergistic radiation protective pharmaceutical compositions” (Chinoin Gyogyszer es Vegyeszeti Termekek Gyar RT, priority 1979, dated 1986).
Where a name gives a salt, the structure may show the parent alone. Read-outs that look alike come from different tables or passages of the source.

How the values were obtained:
[1] = cited from earlier work
[2] = test system: mice; assay: Survival and survival coefficient "S" of irradiated mice (X-ray or 60Co gamma), Tables 2-4; format: in vivo; settings: 140 mg/kg AET alone i.p.
Description: Experiments are carried out in mice. Irradiation was carried out with X-ray (rtg) and with gamma rays obtained from ^60 Co isotope. Survival was observed on the 30th day after irradiation and expressed by using survival coefficient "S" according to Kaluszyner. […] Mice were treated intraperitoneally.

[3] = cited from earlier work; remark: listed apart in the source

Question: With `N=C(N)SCCN` [AET, aminoethyl-isothiuronium-chloride-hydrochloride] as the compound, how does the LD50 p.o. ([1]; listed as aminoethyl-isothiuronium-chloride-hydrochloride) read?
Answer: The LD50 p.o. was 710 mg/kg.

Question: What about the Survival % ([2]; X-ray (rtg) 630 R) of the same compound?
Answer: Its Survival % is 15%.

Question: What about the “Survival coefficient "S"” value ([2]; X-ray (rtg) 630 R) of the same compound?
Answer: The value was 0.39.

Question: And the Survival % ([2]; X-ray (rtg) 800 R)?
Answer: The Survival % was 0%.

Question: What about the “Survival coefficient "S"” value ([2]; X-ray (rtg) 800 R) of the same compound?
Answer: The value was 0.27.

Question: And the Survival % ([2]; gamma 900 rad)?
Answer: The Survival % was 5%.

Question: What about the “Survival coefficient "S"” value ([2]; gamma 900 rad) of the same compound?
Answer: Its value is 0.37.

Question: What about the Survival % ([2]; gamma 1100 rad) of the same compound?
Answer: The Survival % was 0%.

Question: And the “Survival coefficient "S"” value ([2]; gamma 1100 rad)?
Answer: Its value is 0.28.

Question: With `N=C(N)SCCN` [aminoethyl-isothiuronium-bromide-hydrobromide] as the compound, how does the LD50 p.o. [1] read?
Answer: Its LD50 p.o. is 1200 mg/kg.

Question: Which Radiation protective dose ([3]; in vivo) does the source give for `Cl.N[C@@H](CS)C(=O)O` [cysteine-hydrochloride] here?
Answer: The Radiation protective dose was 1900 mg/kg.

Question: With `N=C(N)NCCS` [mercaptoethyl-guanidine] as the compound, how does the LD50 p.o. [1] read?
Answer: The LD50 p.o. was 350 mg/kg.

Question: And the Therapeutic index ([3]; LD50 p.o. / radiation protective dose)?
Answer: Its Therapeutic index is 1.75.
